Data published in a compilation of properties of binary mixtures (doi:10.1021/acs.jced.2c00024).

Test: xn = mol fraction of the nth substance listed
Settings: 101 kPa

COCCn1cc[n+](C)c1.N#C[S-] + O=C1CCCO1
Settings | electrical conductivity [S/m] | viscosity [mPa·s]
288.15 K, x1 = 0.1027 | 1.29 | 3.05
288.15 K, x1 = 0.1999 | 1.4 | 4.19
288.15 K, x1 = 0.3001 | 1.28 | 5.5
288.15 K, x1 = 0.4001 | 1.08 | 7.8
288.15 K, x1 = 0.5006 | 0.874 | 13
288.15 K, x1 = 0.6015 | 0.686 | 21.8
288.15 K, x1 = 0.8038 | 0.399 | 51
288.15 K, x1 = 0.9012 | 0.301 | 68
293.15 K, x1 = 0.1027 | 1.41 | 2.73
293.15 K, x1 = 0.1999 | 1.55 | 3.64
293.15 K, x1 = 0.3001 | 1.44 | 4.79
293.15 K, x1 = 0.4001 | 1.24 | 6.7
293.15 K, x1 = 0.5006 | 1.02 | 10.8
293.15 K, x1 = 0.6015 | 0.819 | 17.3
293.15 K, x1 = 0.7036 | 0.645 | 26.8
293.15 K, x1 = 0.9012 | 0.395 | 53
293.15 K, x1 = 1 | 0.315 | 67
298.15 K, x1 = 0.1027 | 1.54 | 2.44
298.15 K, x1 = 0.1999 | 1.72 | 3.18
298.15 K, x1 = 0.4001 | 1.42 | 5.8
298.15 K, x1 = 0.5006 | 1.19 | 9
298.15 K, x1 = 0.6015 | 0.975 | 13.9
298.15 K, x1 = 0.7036 | 0.788 | 21.1
298.15 K, x1 = 0.8038 | 0.636 | 30.3
298.15 K, x1 = 0.9012 | 0.516 | 42
303.15 K, x1 = 0.1027 | 1.68 | 2.21
303.15 K, x1 = 0.1999 | 1.89 | 2.82
303.15 K, x1 = 0.4001 | 1.61 | 5.1
303.15 K, x1 = 0.5006 | 1.38 | 7.7
303.15 K, x1 = 0.6015 | 1.16 | 11.5
303.15 K, x1 = 0.7036 | 0.958 | 17.1
303.15 K, x1 = 0.8038 | 0.785 | 24.4
303.15 K, x1 = 0.9012 | 0.642 | 33.3
303.15 K, x1 = 1 | 0.52 | 42.1
308.15 K, x1 = 0.1027 | 1.82 | 2
308.15 K, x1 = 0.1999 | 2.08 | 2.51
308.15 K, x1 = 0.3001 | 2.02 | 3.27
308.15 K, x1 = 0.4001 | 1.82 | 4.49
308.15 K, x1 = 0.5006 | 1.59 | 6.5
308.15 K, x1 = 0.7036 | 1.14 | 14.1
308.15 K, x1 = 0.8038 | 0.951 | 19.9
308.15 K, x1 = 1 | 0.653 | 34.4
313.15 K, x1 = 0.1999 | 2.27 | 2.25
313.15 K, x1 = 0.3001 | 2.21 | 2.89
313.15 K, x1 = 0.4001 | 2.02 | 3.94
313.15 K, x1 = 0.6015 | 1.56 | 8.2
313.15 K, x1 = 0.8038 | 1.12 | 16.5
313.15 K, x1 = 0.9012 | 0.95 | 22.5
313.15 K, x1 = 1 | 0.795 | 28.6
318.15 K, x1 = 0.1027 | 2.16 | 1.66
318.15 K, x1 = 0.1999 | 2.47 | 2.03
318.15 K, x1 = 0.5006 | 2.03 | 4.92
318.15 K, x1 = 0.6015 | 1.78 | 7
318.15 K, x1 = 0.7036 | 1.54 | 10.2
318.15 K, x1 = 0.8038 | 1.32 | 14
318.15 K, x1 = 0.9012 | 1.13 | 18.9
318.15 K, x1 = 1 | 0.954 | 23.7
323.15 K, x1 = 0.1027 | 2.35 | 1.53
323.15 K, x1 = 0.3001 | 2.66 | 2.34
323.15 K, x1 = 0.6015 | 2 | 6.1
323.15 K, x1 = 0.8038 | 1.51 | 11.9
323.15 K, x1 = 0.9012 | 1.31 | 16
323.15 K, x1 = 1 | 1.12 | 20
328.15 K, x1 = 0.1027 | 2.55 | 1.41
328.15 K, x1 = 0.1999 | 2.92 | 1.69
328.15 K, x1 = 0.3001 | 2.9 | 2.1
328.15 K, x1 = 0.4001 | 2.74 | 2.79
328.15 K, x1 = 0.5006 | 2.5 | 3.75
328.15 K, x1 = 0.6015 | 2.25 | 5.4
328.15 K, x1 = 0.7036 | 1.99 | 7.6
328.15 K, x1 = 0.8038 | 1.74 | 10.4
328.15 K, x1 = 1 | 1.32 | 17.2
333.15 K, x1 = 0.1999 | 3.15 | 1.56
333.15 K, x1 = 0.3001 | 3.16 | 1.9
333.15 K, x1 = 0.4001 | 2.98 | 2.5
333.15 K, x1 = 0.5006 | 2.75 | 3.35
333.15 K, x1 = 0.6015 | 2.48 | 4.81
333.15 K, x1 = 0.7036 | 2.21 | 6.8
333.15 K, x1 = 0.8038 | 1.95 | 9.2
333.15 K, x1 = 0.9012 | 1.72 | 12.1
333.15 K, x1 = 1 | 1.51 | 14.8
338.15 K, x1 = 0.1027 | 2.98 | 1.21
338.15 K, x1 = 0.1999 | 3.41 | 1.43
338.15 K, x1 = 0.3001 | 3.42 | 1.73
338.15 K, x1 = 0.4001 | 3.26 | 2.23
338.15 K, x1 = 0.5006 | 3.02 | 2.95
338.15 K, x1 = 0.8038 | 2.19 | 8.1
338.15 K, x1 = 0.9012 | 1.95 | 10.6
338.15 K, x1 = 1 | 1.72 | 12.9
343.15 K, x1 = 0.1027 | 3.21 | 1.13
343.15 K, x1 = 0.1999 | 3.66 | 1.33
343.15 K, x1 = 0.3001 | 3.71 | 1.62
343.15 K, x1 = 0.4001 | 3.54 | 2.06
343.15 K, x1 = 0.6015 | 3 | 3.86
343.15 K, x1 = 0.8038 | 2.42 | 7.3
343.15 K, x1 = 0.9012 | 2.15 | 9.5
343.15 K, x1 = 1 | 1.92 | 11.3
